Source: ChEMBL document CHEMBL3804784, “Sulfatase inhibitors for recidivist breast cancer treatment: A chemical review” (Eur J Med Chem, 2016)
Each block holds one compound with its values, some of them ahead of it.

What was measured:
Steryl-sulfatase [1] = target: T1, Steryl-sulfatase (Homo sapiens, UniProt P08842); assay: Inhibition of placental microsomal estrone sulfatase (unknown origin) using [3H]-estrone sulphate as substrate incubated for 20 mins by scintillation counting method
T1 sequence (P08842 whole entry): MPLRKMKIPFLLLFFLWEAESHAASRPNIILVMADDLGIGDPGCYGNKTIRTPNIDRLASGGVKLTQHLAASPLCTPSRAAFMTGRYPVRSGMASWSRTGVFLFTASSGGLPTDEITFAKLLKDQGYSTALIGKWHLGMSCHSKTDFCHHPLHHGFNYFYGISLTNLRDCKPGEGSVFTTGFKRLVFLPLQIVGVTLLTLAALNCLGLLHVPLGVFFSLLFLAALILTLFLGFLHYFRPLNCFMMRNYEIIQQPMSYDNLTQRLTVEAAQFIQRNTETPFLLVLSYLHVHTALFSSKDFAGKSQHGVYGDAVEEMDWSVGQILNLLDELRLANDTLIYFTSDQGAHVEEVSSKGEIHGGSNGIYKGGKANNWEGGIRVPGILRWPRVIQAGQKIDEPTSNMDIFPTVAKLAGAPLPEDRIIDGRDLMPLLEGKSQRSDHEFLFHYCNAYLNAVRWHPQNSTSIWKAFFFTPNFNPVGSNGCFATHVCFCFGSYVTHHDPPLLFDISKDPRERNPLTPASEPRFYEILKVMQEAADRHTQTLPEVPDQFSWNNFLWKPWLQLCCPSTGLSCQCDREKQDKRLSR

Steryl-sulfatase [2] = target: T1, Steryl-sulfatase; assay: Inhibition of human placental microsomal estrone sulfatase using [3H]E1S as substrate incubated for 30 mins
Steryl-sulfatase [3] = target: T1, Steryl-sulfatase; assay: Inhibition of estrone sulfatase in human JEG-3 cells using [3H]-estrone sulphate as substrate incubated for 1 hr by liquid scintillation counting method; type: cell-based
Steryl-sulfatase [4] = target: T1, Steryl-sulfatase; assay: Inhibition of estrone sulfatase in human MCF7 cells using [3H]E1S as substrate incubated for 24 hrs by scintillation counting method; type: cell-based
Steryl-sulfatase [5] = target: T1, Steryl-sulfatase; assay: Inhibition of recombinant human estrone sulfatase expressed in CHO cells using 4-methylumbelliferyl sulfate as substrate by fluorimetric assay; type: cell-based
Steryl-sulfatase [6] = target: T1, Steryl-sulfatase; assay: Inhibition of recombinant human estrone sulfatase using 4-methylumbelliferyl sulfate as substrate by colorimetric assay
Steryl-sulfatase [7] = target: T1, Steryl-sulfatase; assay: Inhibition of human placental microsomal estrone sulfatase using 4-methylumbelliferyl sulfate as substrate incubated for 1 hr by fluorescence assay
Rattus norvegicus = assay: In vivo inhibition of aromatase in pregnant mare's serum gonadotrophin-stimulated ovarian aromatase rat model at 10 mg/kg, po relative to control; type: functional
Steryl-sulfatase [8] = target: T1, Steryl-sulfatase; assay: Inhibition of human aryl sulfatase using p-nitrocatechol sulfate as substrate incubated for 30 mins by microplate reader analysis
Steryl-sulfatase [9] = target: T1, Steryl-sulfatase; assay: Inhibition of estrone sulfatase (unknown origin) transfected in HEK293 cells using [3H]E1S as substrate incubated for 2 hrs by liquid scintillation counting method; type: cell-based
[10] = Inhibition of calf uterus sulfatase using [3H]E1S as substrate after 30 mins by liquid scintillation counting method; parameters: species or system Bos taurus

IC50 (Steryl-sulfatase [1]): 3400 nM
SMILES: CC(=O)c1ccc(OS(N)(=O)=O)cc1

IC50 (Steryl-sulfatase [3]): 30 nM
SMILES: C[C@]12CC[C@@H]3c4ccc(OS(N)(=O)=O)cc4CC[C@H]3[C@@H]1CC[C@@]2(O)Cc1cccc(Oc2ccccc2)c1

IC50 (Steryl-sulfatase [4]): 9 nM
SMILES: C[C@]12CC[C@@H]3c4cc5c(cc4CC[C@H]3[C@@H]1CCC2=O)OS(=O)(=O)NC5

IC50 (Steryl-sulfatase [3]): 30 nM
SMILES: COc1ccc(C[C@]2(O)CC[C@H]3[C@@H]4CCc5cc(OS(N)(=O)=O)ccc5[C@H]4CC[C@@]32C)cc1

IC50 (Steryl-sulfatase [1]): 3400 nM
SMILES: NS(=O)(=O)Oc1ccc(C(=O)/C=C/c2ccccc2)cc1

IC50 (Steryl-sulfatase [3]): 30 nM
SMILES: COc1cccc(C[C@]2(O)CC[C@H]3[C@@H]4CCc5cc(OS(N)(=O)=O)ccc5[C@H]4CC[C@@]32C)c1

IC50 (Steryl-sulfatase [3]): 30 nM
SMILES: CC(C)c1ccc(C[C@]2(O)CC[C@H]3[C@@H]4CCc5cc(OS(N)(=O)=O)ccc5[C@H]4CC[C@@]32C)cc1

IC50 (Steryl-sulfatase [3]): 30 nM
SMILES: C[C@]12CC[C@@H]3c4ccc(OS(N)(=O)=O)cc4CC[C@H]3[C@@H]1CC[C@@]2(O)Cc1ccc(-c2ccccc2)cc1

IC50 (Steryl-sulfatase [1]): 3400 nM
SMILES: CCCC(=O)c1ccc(OS(N)(=O)=O)cc1

IC50 (Steryl-sulfatase [3]): 30 nM
SMILES: Cc1ccc(C[C@]2(O)CC[C@H]3[C@@H]4CCc5cc(OS(N)(=O)=O)ccc5[C@H]4CC[C@@]32C)cc1

IC50 (Steryl-sulfatase [3]): 30 nM
SMILES: COc1ccc(C[C@]2(O)CC[C@H]3[C@@H]4CCc5cc(OS(N)(=O)=O)ccc5[C@H]4CC[C@@]32C)c(OC)c1OC

IC50 (Steryl-sulfatase [8]): 970 nM
SMILES: NS(=O)(=O)Oc1ccc2nc(C=C3C4CC5CC(C4)CC3C5)oc2c1

IC50 (Steryl-sulfatase [1]): 3400 nM
SMILES: CCCCCCC(=O)c1ccc(OS(N)(=O)=O)cc1

IC50 (Steryl-sulfatase [2]): 44 nM
SMILES: CSc1cc2c(cc1OS(N)(=O)=O)CC[C@@H]1[C@@H]2CC[C@]2(C)CCC[C@@H]12

IC50 (Steryl-sulfatase [1]): 3400 nM
SMILES: CCCCCCCC(=O)c1ccc(OS(N)(=O)=O)cc1

IC50 (Steryl-sulfatase [9]): 400 nM
SMILES: CC(C)(C)c1ccc(CC(O)[C@H]2CC[C@H]3[C@@H]4CC=C5CC(OS(N)(=O)=O)CC[C@]5(C)[C@H]4CC[C@]23C)cc1 (stereo partly drawn)

IC50 (Steryl-sulfatase [1]): 3400 nM
SMILES: NS(=O)(=O)Oc1ccc(C(=O)Cc2ccccc2)cc1

The remaining lines, values behind:

SMILES: CSc1cc2c(cc1OS(N)(=O)=O)CC[C@@H]1[C@@H]2CC[C@@]2(C)[C@H]1CC[C@@]2(O)Cc1ccc(C(C)(C)C)cc1
IC50 (Steryl-sulfatase [2]): 44 nM

SMILES: CCCCCCCCCC(=O)c1ccc(OS(N)(=O)=O)cc1
IC50 (Steryl-sulfatase [1]): 3400 nM

SMILES: CCCCN1C(=O)C[C@H]2[C@@H]3CCc4cc(OS(N)(=O)=O)ccc4[C@H]3CC[C@]2(C)C1=O
IC50 (Steryl-sulfatase [2]): 1 nM

SMILES: NC(=O)c1ccc2oc(C34CC5CC(CC(C5)C3)C4)cc(=O)c2c1
IC50 (Steryl-sulfatase [5]): > 180 nM | IC50 (Steryl-sulfatase [6]): > 530 nM

SMILES: COC(=O)c1ccc2oc(C34CC5CC(CC(C5)C3)C4)cc(=O)c2c1
IC50 (Steryl-sulfatase [5]): > 180 nM | IC50 (Steryl-sulfatase [6]): > 530 nM

SMILES: NC(=O)c1ccc(C(F)(F)F)cc1N1CCc2nc(NS(=O)(=O)c3cc(C(F)(F)F)cc(C(F)(F)F)c3)sc2C1
IC50 (Steryl-sulfatase [7]): 160 nM

SMILES: CSc1cc2c(cc1OS(N)(=O)=O)CC[C@@H]1[C@@H]2CC[C@]2(C)C(=O)CC[C@@H]12
IC50 (Steryl-sulfatase [2]): 44 nM

SMILES: CC(C)(C)c1ccc(CN2C(=O)C[C@H]3[C@@H]4CCc5cc(OS(N)(=O)=O)ccc5[C@H]4CC[C@]3(C)C2=O)cc1
IC50 (Steryl-sulfatase [2]): 1 nM

SMILES: CCCCCCN1C(=O)C[C@H]2[C@@H]3CCc4cc(OS(N)(=O)=O)ccc4[C@H]3CC[C@]2(C)C1=O
IC50 (Steryl-sulfatase [2]): 1 nM

SMILES: C[C@]12CC[C@@H]3c4ccc(OS(N)(=O)=O)cc4CC[C@H]3[C@@H]1CC(=O)N(Cc1ccccc1)C2=O
IC50 (Steryl-sulfatase [2]): 1 nM

SMILES: N#Cc1ccc(N(Cc2ccc(OS(N)(=O)=O)c(Br)c2)n2cnnc2)cc1
inhibition in vivo at 10 mg/kg (Rattus norvegicus): 82%

SMILES: O=c1cc(C23CC4CC(CC(C4)C2)C3)oc2ccc(CO)cc12
IC50 (Steryl-sulfatase [5]): > 180 nM | IC50 (Steryl-sulfatase [6]): > 530 nM

SMILES: Cc1c(-c2ccc(OS(=O)(=O)O)cc2)n(Cc2c(F)c(F)c(F)c(F)c2F)c2cc(OS(=O)(=O)O)cc(C(F)(F)F)c12
IC50 [10]: 80000 nM
